According to PubChem BioAssay (NCI):
Several values for one entry are separate records, joined by “and”; a condition that tells them apart may be missing. Identical values can stand only once.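 These data come from cells grown in 96-well plates and exposed to compound for 48 hours at five concentrations. GI50 marks 50% less growth. TGI denotes the concentration required for complete inhibition of growth.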

Assays:
Assay in all cases: NCI tumour cell line growth inhibition, 48 h
A498 renal = system: A498 renal
A549 NSCLC = system: A549 NSCLC
CAKI-1 renal = system: CAKI-1 renal
CCRF-CEM leukemia = system: CCRF-CEM leukemia
COLO 205 colon = system: COLO 205 colon
DLD-1 colon = system: DLD-1 colon
DMS 273 small cell lung = system: DMS 273 small cell lung
EKVX NSCLC = system: EKVX NSCLC
HCC-2998 colon = system: HCC-2998 colon
HCT-116 colon = system: HCT-116 colon
HCT-15 colon = system: HCT-15 colon
HL-60(TB) leukemia = system: HL-60(TB) leukemia
HOP-18 NSCLC = system: HOP-18 NSCLC
HOP-62 NSCLC = system: HOP-62 NSCLC
HOP-92 NSCLC = system: HOP-92 NSCLC
HT29 colon = system: HT29 colon
IGROV1 ovarian = system: IGROV1 ovarian
K-562 leukemia = system: K-562 leukemia
KM12 colon = system: KM12 colon
KM20L2 colon = system: KM20L2 colon
LOX IMVI melanoma = system: LOX IMVI melanoma
M19-MEL melanoma = system: M19-MEL melanoma
MALME-3M melanoma = system: MALME-3M melanoma
MCF7 breast = system: MCF7 breast
MOLT-4 leukemia = system: MOLT-4 leukemia
NCI-H226 lung = system: NCI-H226 lung
NCI-H23 lung = system: NCI-H23 lung
NCI-H460 lung = system: NCI-H460 lung
NCI-H522 lung = system: NCI-H522 lung
NCI/ADR-RES ovarian = system: NCI/ADR-RES ovarian
OVCAR-3 ovarian = system: OVCAR-3 ovarian
OVCAR-4 ovarian = system: OVCAR-4 ovarian
OVCAR-5 ovarian = system: OVCAR-5 ovarian
OVCAR-8 ovarian = system: OVCAR-8 ovarian
P388 leukemia = system: P388 leukemia
P388/ADR leukemia = system: P388/ADR leukemia
RPMI-8226 leukemia = system: RPMI-8226 leukemia
RXF 393 renal = system: RXF 393 renal
SF-268 CNS = system: SF-268 CNS
SF-295 CNS = system: SF-295 CNS
SF-539 CNS = system: SF-539 CNS
SK-MEL-2 melanoma = system: SK-MEL-2 melanoma
SK-MEL-28 melanoma = system: SK-MEL-28 melanoma
SK-MEL-5 melanoma = system: SK-MEL-5 melanoma
SK-OV-3 ovarian = system: SK-OV-3 ovarian
SN12C renal = system: SN12C renal
SN12K1 renal = system: SN12K1 renal
SNB-19 CNS = system: SNB-19 CNS
SNB-75 CNS = system: SNB-75 CNS
SW-620 colon = system: SW-620 colon
U251 CNS = system: U251 CNS
UACC-257 melanoma = system: UACC-257 melanoma
UACC-62 melanoma = system: UACC-62 melanoma
UO-31 renal = system: UO-31 renal
XF 498 CNS = system: XF 498 CNS

For `C=C1C(=O)[C@@]23CC[C@H]4[C@@](C)(CCC[C@@]4(C)C(=O)OC)[C@@H]2CC[C@]1(O)C3`, the GI50 (A498 renal) was 1.49 µM, the TGI (A498 renal) was 3.09 µM and the TGI (A549 NSCLC) was 10.4 µM and 10.6 µM. For the same compound, the TGI (CAKI-1 renal) was 2.96 µM, the TGI (CCRF-CEM leukemia) was greater than 100 µM and the TGI (COLO 205 colon) was 3.83 µM and 3.18 µM. The TGI (DLD-1 colon) was 1.33 µM, the GI50 (DMS 273 small cell lung) was 1.32 µM and the TGI (DMS 273 small cell lung) was 2.66 µM and 3.08 µM. For the same compound, the TGI (EKVX NSCLC) was 3.5 µM, the TGI (HCC-2998 colon) was 8.55 µM and the TGI (HCT-116 colon) was 2.21 µM and 2.17 µM. For the same compound, the TGI (HCT-15 colon) was 2.85 µM and 2.71 µM, the GI50 (HL-60(TB) leukemia) was 0.27 µM and the TGI (HL-60(TB) leukemia) was 1.35 µM and 0.967 µM. For the same compound, the TGI (HOP-18 NSCLC) was 3.62 µM and 3.51 µM, the TGI (HOP-62 NSCLC) was 34.7 µM and the GI50 (HOP-92 NSCLC) was 1.48 µM. The TGI (HOP-92 NSCLC) was 2.88 µM and 3.21 µM, the GI50 (HT29 colon) was 0.911 µM and the TGI (HT29 colon) was 3.14 µM and 2.71 µM. For the same compound, the TGI (IGROV1 ovarian) was 3.07 µM and 3 µM, the GI50 (K-562 leukemia) was 0.463 µM and the GI50 (KM12 colon) was 1.97 µM. For the same compound, the TGI (KM12 colon) was 3.6 µM and 5.81 µM, the GI50 (KM20L2 colon) was 1.91 µM and the TGI (KM20L2 colon) was 3.83 µM. For the same compound, the GI50 (LOX IMVI melanoma) was 1.34 µM, the TGI (LOX IMVI melanoma) was 2.64 µM and 2.22 µM and the GI50 (M19-MEL melanoma) was 1.13 µM. The TGI (M19-MEL melanoma) was 2.46 µM and 2.91 µM, the GI50 (MALME-3M melanoma) was 2.51 µM and the TGI (MALME-3M melanoma) was 9.8 µM. For the same compound, the GI50 (MCF7 breast) was 0.326 µM, the TGI (MCF7 breast) was 1.35 µM and 3.79 µM and the TGI (MOLT-4 leukemia) was 0.98 µM. For the same compound, the GI50 (NCI-H226 lung) was 1.78 µM, the TGI (NCI-H226 lung) was 3.38 µM and 7.45 µM and the GI50 (NCI-H23 lung) was 2.41 µM. For the same compound, the TGI (NCI-H23 lung) was 5.05 µM and 2.96 µM, the GI50 (NCI-H460 lung) was 1.8 µM and the TGI (NCI-H460 lung) was 3.45 µM and 13 µM. The TGI (NCI-H522 lung) was 2.94 µM, the TGI (NCI/ADR-RES ovarian) was 2.87 µM and the TGI (OVCAR-3 ovarian) was 3.48 µM and 3.25 µM. The GI50 (OVCAR-4 ovarian) was 1.69 µM, the TGI (OVCAR-4 ovarian) was 3.12 µM and 3.31 µM and the GI50 (OVCAR-5 ovarian) was 3.95 µM. The TGI (OVCAR-5 ovarian) was 11.8 µM and 3.54 µM, the TGI (OVCAR-8 ovarian) was 2.96 µM and 2.85 µM and the TGI (P388 leukemia) was 0.424 µM. The TGI (P388/ADR leukemia) was 0.224 µM, the TGI (RPMI-8226 leukemia) was 0.969 µM and the GI50 (RXF 393 renal) was 3.06 µM. For the same compound, the TGI (RXF 393 renal) was 7.97 µM, the GI50 (SF-268 CNS) was 1.55 µM and the TGI (SF-268 CNS) was 3 µM and 3.35 µM. The GI50 (SF-295 CNS) was 9.14 µM, the TGI (SF-295 CNS) was 21.9 µM and 18.1 µM and the GI50 (SF-539 CNS) was 3.53 µM. For the same compound, the TGI (SF-539 CNS) was 11.2 µM and 3.18 µM, the GI50 (SK-MEL-2 melanoma) was 1.5 µM and the TGI (SK-MEL-2 melanoma) was 2.82 µM and 3.12 µM. For the same compound, the TGI (SK-MEL-28 melanoma) was 3.24 µM and 3.32 µM, the TGI (SK-MEL-5 melanoma) was 3.65 µM and the TGI (SK-OV-3 ovarian) was 33.4 µM. For the same compound, the TGI (SN12C renal) was 3.06 µM and 3.23 µM, the GI50 (SN12K1 renal) was 1.67 µM and the TGI (SN12K1 renal) was 3.15 µM and 2.82 µM. For the same compound, the GI50 (SNB-19 CNS) was 4.79 µM, the TGI (SNB-19 CNS) was 16.6 µM and 27.5 µM and the GI50 (SNB-75 CNS) was 3.69 µM. For the same compound, the TGI (SNB-75 CNS) was 12 µM and 6.94 µM, the GI50 (SW-620 colon) was 0.878 µM and the TGI (SW-620 colon) was 2.84 µM and 1.85 µM. The GI50 (U251 CNS) was 2.2 µM, the TGI (U251 CNS) was 4.67 µM and 11.3 µM and the GI50 (UACC-257 melanoma) was 1.97 µM. The TGI (UACC-257 melanoma) was 3.42 µM and 3.11 µM, the GI50 (UACC-62 melanoma) was 1.33 µM and the TGI (UACC-62 melanoma) was 2.78 µM and 2.95 µM. For the same compound, the GI50 (UO-31 renal) was 1.63 µM, the TGI (UO-31 renal) was 3 µM and 4.03 µM and the TGI (XF 498 CNS) was 3.17 µM and 3.15 µM.
